Patent publication US20260241012A1, “1,8-NAPHTHYRIDIN-2-ONE HETEROBIFUNCTIONAL BCL6 DEGRADERS” (Treeline Biosciences, Inc., priority 2022, published 2026)

Target: T1, N-terminal HiBiT tagged BCL6 (Homo sapiens, UniProt P41182)
T1 construct: expressed in transfected cells; host or cells: HT1080 (ATCC CCL-121), stably transduced with lentivirus pLV-UBC-N-HiBiT-BCL6-PGK-puro
Assay: HiBiT based degradation assay
Format: cell-based
Details: HT1080 cells expressing N-terminal HiBiT tagged BCL6, 5 hours of incubation; for Ymin (5 hr): BCL6 degradation normalized with DMSO control; for DC50: four-parameter logistic model, read-out: EC50 (5 hr)
In short: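 Degradation measured by luminescence from the Nano-Glo HiBiT lytic reagent (15 min, room temperature), normalized to DMSO controls and fitted to a four-parameter curve.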

Row | Ymin (5 hr) | DC50 [nM] | Structure (SMILES)
1 | +++ (30% ≤ Ymin < 50%) | 10 to 100 | CNC(=O)COc1cc2cc(Nc3nc(N4CCN(CC5CCN(c6cccc7c(C8CCC(=O)NC8=O)nn(C)c67)CC5)C[C@@H]4C)ncc3Cl)cnc2n(C(C)C)c1=O (stereo partly drawn) [Compound 168a, 2-[[6-[[5-chloro-2-[(2S)-4-[[1-[3-(2,6-dioxo-3-piperidyl)-1-methyl-indazol-7-yl]-4-piperidyl]methyl]-2-methyl-piperazin-1-yl]pyrimidin-4-yl]amino]-1-isopropyl-2-oxo-1,8-naphthyridin-3-yl]oxy]-N-methyl-acetamide]
2 | +++ (30% ≤ Ymin < 50%) | 10 to 100 | CNC(=O)COc1cc2cc(Nc3nc(N4CCN(CC5CCN(c6cccc7c(C8CCC(=O)NC8=O)nn(C)c67)CC5)C[C@H]4C)ncc3Cl)cnc2n(C(C)C)c1=O (stereo partly drawn) [Compound 168b, 2-[[6-[[5-chloro-2-[(2R)-4-[[1-[3-(2,6-dioxo-3-piperidyl)-1-methyl-indazol-7-yl]-4-piperidyl]methyl]-2-methyl-piperazin-1-yl]pyrimidin-4-yl]amino]-1-isopropyl-2-oxo-1,8-naphthyridin-3-yl]oxy]-N-methyl-acetamide]
3 | ++++ (Ymin < 30%) | < 10 | CNC(=O)COc1cc2cc(Nc3nc(N4CCC(CN5CCN(c6cccc7c(C8CCC(=O)NC8=O)nn(C)c67)[C@@H](C)C5)CC4)ncc3Cl)cnc2n(C(C)C)c1=O (stereo partly drawn) [Compound 169a, 2-((6-((5-chloro-2-(4-(((3S)-4-(3-(2,6-dioxopiperidin-3-yl)-1-methyl-1H-indazol-7-yl)-3-methylpiperazin-1-yl)methyl)piperidin-1-yl)pyrimidin-4-yl)amino)-1-isopropyl-2-oxo-1,2-dihydro-1,8-naphthyridin-3-yl)oxy)-N-methylacetamide]
4 | ++++ (Ymin < 30%) | < 10 | CNC(=O)COc1cc2cc(Nc3nc(N4CCC(CN5CCN(c6cccc7c(C8CCC(=O)NC8=O)nn(C)c67)[C@H](C)C5)CC4)ncc3Cl)cnc2n(C(C)C)c1=O (stereo partly drawn) [Compound 169b, 2-((6-((5-chloro-2-(4-(((3R)-4-(3-(2,6-dioxopiperidin-3-yl)-1-methyl-1H-indazol-7-yl)-3-methylpiperazin-1-yl)methyl)piperidin-1-yl)pyrimidin-4-yl)amino)-1-isopropyl-2-oxo-1,2-dihydro-1,8-naphthyridin-3-yl)oxy)-N-methylacetamide]

Continued, compound first:

Row | Structure (SMILES) | Ymin (5 hr) | DC50 [nM]
5 | CNC(=O)COc1cc2cc(Nc3nc(N4CCN(C(C)(C)C5CCN(c6ccc7c(C8CCC(=O)NC8=O)nn(C)c7c6)CC5)CC4)ncc3Cl)cnc2n(C(C)C)c1=O (centres unmarked) [Compound 158, 2-((6-((5-chloro-2-(4-(2-(1-(3-(2,6-dioxopiperidin-3-yl)-1-methyl-1H-indazol-6-yl)piperidin-4-yl)propan-2-yl)piperazin-1-yl)pyrimidin-4-yl)amino)-1-isopropyl-2-oxo-1,2-dihydro-1,8-naphthyridin-3-yl)oxy)-N-methylacetamide] | ++ (50% ≤ Ymin < 70%) | < 10
6 | CNC(=O)COc1cc2cc(Nc3cc(N4CCN(CC5CCN(c6cccc7c(C8CCC(=O)NC8=O)nn(C)c67)CC5)CC4)ncc3Cl)cnc2n(C)c1=O (centres unmarked) [Compound 160, 2-((6-((5-chloro-2-(4-((1-(3-(2,6-dioxopiperidin-3-yl)-1-methyl-1H-indazol-7-yl)piperidin-4-yl)methyl)piperazin-1-yl)pyridin-4-yl)amino)-1-methyl-2-oxo-1,2-dihydro-1,8-naphthyridin-3-yl)oxy)-N-methylacetamide] | ++++ (Ymin < 30%) | < 10
7 | CNC(=O)COc1cc2cc(Nc3nc(N4CCC(F)(CN5CCC(c6cccc7c(C8CCC(=O)NC8=O)nn(C)c67)CC5)CC4)ncc3Cl)cnc2n(C(C)C)c1=O (centres unmarked) [Compound 161, 2-((6-((5-chloro-2-(4-((4-(3-(2,6-dioxopiperidin-3-yl)-1-methyl-1H-indazol-7-yl)piperidin-1-yl)methyl)-4-fluoropiperidin-1-yl)pyrimidin-4-yl)amino)-1-isopropyl-2-oxo-1,2-dihydro-1,8-naphthyridin-3-yl)oxy)-N-methylacetamide] | ++++ (Ymin < 30%) | 10 to 100
8 | CNC(=O)COc1cc2cc(Nc3nc(N4C5COCC4CN(CC4CCN(c6cccc7c(C8CCC(=O)NC8=O)nn(C)c67)CC4)C5)ncc3Cl)cnc2n(C(C)C)c1=O (centres unmarked) [Compound 162, 2-((6-((5-chloro-2-(7-((1-(3-(2,6-dioxopiperidin-3-yl)-1-methyl-1H-indazol-7-yl)piperidin-4-yl)methyl)-3-oxa-7,9-diazabicyclo[3.3.1]nonan-9-yl)pyrimidin-4-yl)amino)-1-isopropyl-2-oxo-1,2-dihydro-1,8-naphthyridin-3-yl)oxy)-N-methylacetamide] | ++++ (Ymin < 30%) | < 10
9 | CNC(=O)COc1cc2cc(Nc3nc(N4CCN(CC5CCN(c6cccc7c(C8CCC(=O)NC8=O)nn(C)c67)CC5)[C@@H](C(F)(F)F)C4)ncc3Cl)cnc2n(C(C)C)c1=O (stereo partly drawn) [Compound 163a, 2-[[6-[[5-chloro-2-[(3R)-4-[[1-[3-(2,6-dioxo-3-piperidyl)-1-methyl-indazol-7-yl]-4-piperidyl]methyl]-3-(trifluoromethyl)piperazin-1-yl]pyrimidin-4-yl]amino]-1-isopropyl-2-oxo-1,8-naphthyridin-3-yl]oxy]-N-methyl-acetamide] | +++ (30% ≤ Ymin < 50%) | 100 to 1000
10 | CNC(=O)COc1cc2cc(Nc3nc(N4CCC(Oc5ccc6c(C7CCC(=O)NC7=O)nn(C)c6c5)CC4)ncc3Cl)cnc2n(C(C)C)c1=O (centres unmarked) [Compound 164, 2-[[6-[[5-chloro-2-[4-[3-(2,6-dioxo-3-piperidyl)-1-methyl-indazol-6-yl]oxy-1-piperidyl]pyrimidin-4-yl]amino]-1-isopropyl-2-oxo-1,8-naphthyridin-3-yl]oxy]-N-methyl-acetamide] | +++ (30% ≤ Ymin < 50%) | < 10
11 | CNC(=O)COc1cc2cc(Nc3nc(N4CCN(c5ccc6c(C7CCC(=O)NC7=O)nn(C)c6c5)CC4)ncc3Cl)cnc2n(C(C)C)c1=O (centres unmarked) [Compound 165, 2-[[6-[[5-chloro-2-[4-[3-(2,6-dioxo-3-piperidyl)-1-methyl-indazol-6-yl]piperazin-1-yl]pyrimidin-4-yl]amino]-1-isopropyl-2-oxo-1,8-naphthyridin-3-yl]oxy]-N-methyl-acetamide] | ++ (50% ≤ Ymin < 70%) | < 10
12 | CNC(=O)COc1cc2cc(Nc3nc(N4CCN(c5cccc6c(C7CCC(=O)NC7=O)nn(C)c56)CC4)ncc3Cl)cnc2n(C(C)C)c1=O (centres unmarked) [Compound 166, 2-[[6-[[5-chloro-2-[4-[3-(2,6-dioxo-3-piperidyl)-1-methyl-indazol-7-yl]piperazin-1-yl]pyrimidin-4-yl]amino]-1-isopropyl-2-oxo-1,8-naphthyridin-3-yl]oxy]-N-methyl-acetamide] | +++ (30% ≤ Ymin < 50%) | < 10
13 | CNC(=O)COc1cc2cc(Nc3nc(N4CCC(F)(CN5CCC(c6ccc7c(C8CCC(=O)NC8=O)nn(C)c7c6)CC5)CC4)ncc3Cl)cnc2n(C(C)C)c1=O (centres unmarked) [Compound 167, 2-[[6-[[5-chloro-2-[4-[[4-[3-(2,6-dioxo-3-piperidyl)-1-methyl-indazol-6-yl]-1-piperidyl]methyl]-4-fluoro-1-piperidyl]pyrimidin-4-yl]amino]-1-isopropyl-2-oxo-1,8-naphthyridin-3-yl]oxy]-N-methyl-acetamide] | ++++ (Ymin < 30%) | < 10
